Laboratory results as given in patent US20250221988A1 (Cullgen (Shanghai), Inc., priority 2022, published 2025).
Read-outs that look alike come from different tables or passages of the source.

Experiments:
MV4;11 cells = assay: Cell viability assay (CellTiter-Glo) in MV4;11 cells; assay type: cell-based; settings: read-out: MV4
Protocol: (§1) Cell Culture: RS4;11, MV4;11, MOLM-13 and other cells were cultured at 37° C. with 5% CO2 in RPMI 1640 or DMEM Medium supplemented with 10% fetal bovine serum. Cells were authenticated using the short tandem repeat (STR) assays. Mycoplasma test results were negative.
(§2) Cell viability assays: Cells were seeded at a density of 5000 cells per well in 96-well assay plates and treated with test compounds following a 8-point or 12-point 3-fold serial dilution. Three days later, cell viability was determined using the CellTiter-Glo assay kit according to the manufacturer's instructions. The dose-response curves were determined and IC50 values were calculated using the GraphPad Prism software following a nonlinear regression (least squares fit) method.
The IC50 values (nM) of each compound were determined in MV4;11 and MOLM-13 cells with or without gilteritinib (10 nM for MV4;11; and 20 nM for MOML-13) as described in the Materials and Methods subsection and calculated using the GraphPad Prism 5.0 software.

MOLM-13 cells = assay: Cell viability assay (CellTiter-Glo) in MOLM-13 cells; assay type: cell-based
Protocol: as §1
as §2, with “method. […]” for “method.”

[1] = Homo sapiens, MV4-11, 72 h, MV4;11 cells, compound alone, three days, 11 IC50
[2] = Homo sapiens, 72 h, MOLM-13 cells, compound alone, three days, read-out: MOLM-13 IC50
[3] = MV4;11 cells, with 10 nM gilteritinib, three days, 11 IC50 (nM) + 10 nM Gil
[4] = MOLM-13 cells, with gilteritinib, three days, read-out: MOLM-13 IC50 (nM) + 10 nM Gil

Structure (SMILES) | IC50 (MV4;11 cells; [1]) | IC50 (MOLM-13 cells; [2]) | IC50 (MV4;11 cells; [3]) | IC50 (MOLM-13 cells; [4]) | IC50 (MV4;11 cells; Homo sapiens, MV4-11, 72 h, 11 IC50 (nM)) | IC50 (MV4;11 cells; 11 IC50 (nM) + 10 nM Gil, MV4;11 cells, with 10 nM gilteritinib, three days) | IC50 (MOLM-13 cells; Homo sapiens, MOLM-13, 72 h, read-out: MOLM-13 IC50 (nM)) | IC50 (MOLM-13 cells; read-out: MOLM-13 IC50 (nM) + 10 nM Gil, MOLM-13 cells, with gilteritinib, three days)
Cc1nc(-c2cn([C@H]3C[C@@H]3CNc3ccc4c(c3)C(=O)N(C3CCC(=O)NC3=O)C4=O)nc2C2CC2)ccc1F (relative stereo) [GS-643, 5-(((Trans-2-(3-cyclopropyl-4-(5-fluoro-6-methylpyridin-2-yl)-1H-pyrazol-1-yl)cyclopropyl)methyl)amino)-2-(2,6-dioxopiperidin-3-yl)isoindoline-1,3-dione] | > 1000 nM | > 1000 nM |  |  |  |  |  | 
O=C1CCC(N2C(=O)c3ccc(NC[C@H]4C[C@H](n5cc(-c6cc7c(cn6)cnn7CC(F)(F)F)c(C6CC6)n5)C4)cc3C2=O)C(=O)N1 (relative stereo) [GS-704, 5-(((Trans-3-(3-cyclopropyl-4-(1-(2,2,2-trifluoroethyl)-1H-pyrazolo[4,3-c]pyridin-6-yl)-1H-pyrazol-1-yl)cyclobutyl)methyl)amino)-2-(2,6-dioxopiperidin-3-yl)isoindoline-1,3-dione] | 10 to 100 nM | 10 to 100 nM | < 10 nM | < 10 nM |  |  |  | 
O=C1CCC(N2C(=O)c3ccc(OC[C@H]4C[C@H](n5cc(-c6cnc7ccccc7n6)c(C6CC6)n5)C4)cc3C2=O)C(=O)N1 (stereo partly drawn) [GS-640, 5-((Trans-3-(3-cyclopropyl-4-(quinoxalin-2-yl)-1H-pyrazol-1-yl)cyclobutyl)methoxy)-2-(2,6-dioxopiperidin-3-yl)isoindoline-1,3-dione] | > 1000 nM | > 1000 nM | 100 to 1000 nM | 100 to 1000 nM |  |  |  | 
O=C1CCC(N2C(=O)c3ccc(NCCCn4cc(-c5cnc6ccccc6n5)c(C5CC5)n4)cc3C2=O)C(=O)N1 (centres unmarked) [GS-642, 5-((3-(3-Cyclopropyl-4-(quinoxalin-2-yl)-1H-pyrazol-1-yl)propyl)amino)-2-(2,6-dioxopiperidin-3-yl)isoindoline-1,3-dione] | 10 to 100 nM | 10 to 100 nM | < 10 nM | < 10 nM |  |  |  | 
Cc1nc(-c2cn(CC3CC3CNc3ccc4c(c3)C(=O)N(C3CCC(=O)NC3=O)C4=O)nc2C2CC2)ccc1F (centres unmarked) [GS-645, 5-(((2-((3-Cyclopropyl-4-(5-fluoro-6-methylpyridin-2-yl)-1H-pyrazol-1-yl)methyl)cyclopropyl)methyl)amino)-2-(2,6-dioxopiperidin-3-yl)isoindoline-1,3-dione] | > 1000 nM | > 1000 nM |  | 100 to 1000 nM |  |  |  | 
O=C1CCC(N2Cc3cc(NC[C@H]4C[C@H](n5cc(-c6cnc7ccccc7n6)c(C6CC6)n5)C4)ccc3C2=O)C(=O)N1 (stereo partly drawn) [GS-651, 3-(5-(((trans-3-(3-Cyclopropyl-4-(quinoxalin-2-yl)-1H-pyrazol-1-yl)cyclobutyl)methyl)amino)-1-oxoisoindolin-2-yl)piperidine-2,6-dione] | < 10 nM | 10 to 100 nM | < 10 nM | < 10 nM |  |  |  | 
O=C1CCC(N2C(=O)c3ccc(NC[C@H]4C[C@H](n5cc(-c6cccc(N7CCC7)c6)c(C6CC6)n5)C4)cc3C2=O)C(=O)N1 (stereo partly drawn) [GS-653, 5-(((Trans-3-(4-(3-(azetidin-1-yl)phenyl)-3-cyclopropyl-1H-pyrazol-1-yl)cyclobutyl)methyl)amino)-2-(2,6-dioxopiperidin-3-yl)isoindoline-1,3-dione] |  |  |  |  | 100 to 1000 nM | 10 to 100 nM | > 1000 nM | 10 to 100 nM
Cc1nc(-c2cn([C@H]3C[C@H](CNc4ccc5c(c4)CN([C@@H]4CCC(=O)NC4=O)C5=O)C3)nc2C2CC2)ccc1F [GS-801, (R)-3-(5-(((trans-3-(3-cyclopropyl-4-(5-fluoro-6-methylpyridin-2-yl)-1H-pyrazol-1-yl)cyclobutyl)methyl)amino)-1-oxoisoindolin-2-yl)piperidine-2,6-dione] |  | 10 to 100 nM |  |  |  |  |  | 

Continued, in another order:

IC50 (MV4;11 cells; [1]) | IC50 (MOLM-13 cells; [2]) | IC50 (MV4;11 cells; [3]) | IC50 (MOLM-13 cells; [4]) | Structure (SMILES) | IC50 (MV4;11 cells; Homo sapiens, MV4-11, 72 h, 11 IC50 (nM)) | IC50 (MV4;11 cells; 11 IC50 (nM) + 10 nM Gil, MV4;11 cells, with 10 nM gilteritinib, three days) | IC50 (MOLM-13 cells; Homo sapiens, MOLM-13, 72 h, read-out: MOLM-13 IC50 (nM)) | IC50 (MOLM-13 cells; read-out: MOLM-13 IC50 (nM) + 10 nM Gil, MOLM-13 cells, with gilteritinib, three days)
10 to 100 nM | 10 to 100 nM | < 10 nM | < 10 nM | O=C1CCC(N2C(=O)c3ccc(NC[C@H]4C[C@H](n5cc(-c6cccc(N7CCCC7)n6)c(C6CC6)n5)C4)cc3C2=O)C(=O)N1 (relative stereo) [GS-748, 5-(((Trans-3-(3-cyclopropyl-4-(6-(pyrrolidin-1-yl)pyridin-2-yl)-1H-pyrazol-1-yl)cyclobutyl)methyl)amino)-2-(2,6-dioxopiperidin-3-yl)isoindoline-1,3-dione] |  |  |  | 
< 10 nM | < 10 nM | < 10 nM | < 10 nM | O=C1CCC(N2C(=O)c3ccc(NC[C@H]4C[C@H](n5cc(-c6ncccc6OC6CC6)c(C6CC6)n5)C4)cc3C2=O)C(=O)N1 (stereo partly drawn) [GS-641, 5-(((Trans-3-(4-(3-cyclopropoxypyridin-2-yl)-3-cyclopropyl-1H-pyrazol-1-yl)cyclobutyl)methyl)amino)-2-(2,6-dioxopiperidin-3-yl)isoindoline-1,3-dione] |  |  |  | 
10 to 100 nM | 10 to 100 nM | < 10 nM | < 10 nM | O=C1CCC(N2C(=O)c3ccc(NC[C@H]4C[C@H](n5cc(-c6cnc7ccc(N8CC(O)C8)cc7n6)c(C6CC6)n5)C4)cc3C2=O)C(=O)N1 (stereo partly drawn) [GS-644, 5-(((Trans-3-(3-cyclopropyl-4-(7-(3-hydroxyazetidin-1-yl)quinoxalin-2-yl)-1H-pyrazol-1-yl)cyclobutyl)methyl)amino)-2-(2,6-dioxopiperidin-3-yl)isoindoline-1,3-dione] |  |  |  | 
10 to 100 nM | 100 to 1000 nM | 10 to 100 nM | 10 to 100 nM | COC1CCCCC1c1cn([C@H]2C[C@H](CNc3ccc4c(c3)C(=O)N(C3CCC(=O)NC3=O)C4=O)C2)nc1C1CC1 (stereo partly drawn) [GS-646, 5-(((Trans-3-(3-cyclopropyl-4-(2-methoxycyclohexyl)-1H-pyrazol-1-yl)cyclobutyl)methyl)amino)-2-(2,6-dioxopiperidin-3-yl)isoindoline-1,3-dione] |  |  |  | 
> 1000 nM | > 1000 nM | 100 to 1000 nM | 10 to 100 nM | O=C1CCC(N2C(=O)c3ccc(NC[C@H]4C[C@H](n5cc(-c6cccc(N7CC(O)C7)n6)c(C6CC6)n5)C4)cc3C2=O)C(=O)N1 (stereo partly drawn) [GS-647, 5-(((Trans-3-(3-cyclopropyl-4-(6-(3-hydroxyazetidin-1-yl)pyridin-2-yl)-1H-pyrazol-1-yl)cyclobutyl)methyl)amino)-2-(2,6-dioxopiperidin-3-yl)isoindoline-1,3-dione] |  |  |  | 
> 1000 nM | > 1000 nM |  | 100 to 1000 nM | O=C1CCC(N2C(=O)c3ccc(NC[C@H]4C[C@H](n5nc(C6CC6)c6nccnc65)C4)cc3C2=O)C(=O)N1 (stereo partly drawn) [GS-648, 5-(((Trans-3-(3-cyclopropyl-1H-pyrazolo[3,4-b]pyrazin-1-yl)cyclobutyl)methyl)amino)-2-(2,6-dioxopiperidin-3-yl)isoindoline-1,3-dione] |  |  |  | 
< 10 nM | 10 to 100 nM | < 10 nM | < 10 nM | Cn1ncc2ccnc(-c3cn([C@H]4C[C@H](CNc5ccc6c(c5)C(=O)N(C5CCC(=O)NC5=O)C6=O)C4)nc3C3CC3)c21 (stereo partly drawn) [GS-649, 5-(((trans-3-(3-Cyclopropyl-4-(1-methyl-1H-pyrazolo[3,4-c]pyridin-7-yl)-1H-pyrazol-1-yl)cyclobutyl)methyl)amino)-2-(2,6-dioxopiperidin-3-yl)isoindoline-1,3-dione] |  |  |  | 
10 to 100 nM | 100 to 1000 nM | 10 to 100 nM | 10 to 100 nM | CN(C)c1ccccc1-c1cn([C@H]2C[C@H](CNc3ccc4c(c3)C(=O)N(C3CCC(=O)NC3=O)C4=O)C2)nc1C1CC1 (stereo partly drawn) [GS-650, 5-(((trans-3-(3-Cyclopropyl-4-(2-(dimethylamino)phenyl)-1H-pyrazol-1-yl)cyclobutyl)methyl)amino)-2-(2,6-dioxopiperidin-3-yl)isoindoline-1,3-dione] |  |  |  | 
> 1000 nM | > 1000 nM | 10 to 100 nM | 100 to 1000 nM | O=C1CCC(N2C(=O)c3ccc(NC[C@H]4C[C@H](n5cc(-c6ccccc6N6CCNCC6)c(C6CC6)n5)C4)cc3C2=O)C(=O)N1 (stereo partly drawn) [GS-652, 5-(((Trans-3-(3-cyclopropyl-4-(2-(piperazin-1-yl)phenyl)-1H-pyrazol-1-yl)cyclobutyl)methyl)amino)-2-(2,6-dioxopiperidin-3-yl)isoindoline-1,3-dione] |  |  |  | 
> 1000 nM | 100 to 1000 nM | 10 to 100 nM | 100 to 1000 nM | O=C1CCC(N2C(=O)c3ccc(NC[C@H]4C[C@H](n5cc(-c6ccccc6C6CCNCC6)c(C6CC6)n5)C4)cc3C2=O)C(=O)N1 (stereo partly drawn) [GS-654, 5-(((Trans-3-(3-cyclopropyl-4-(2-(piperidin-4-yl)phenyl)-1H-pyrazol-1-yl)cyclobutyl)methyl)amino)-2-(2,6-dioxopiperidin-3-yl)isoindoline-1,3-dione] |  |  |  | 
